The results in this text go back to US4176184A, “Imidazoisoquinoline-diones and salts thereof” (Boehringer Ingelheim GmbH, priority 1977, dated 1979).

Each structure is given as a SMILES string. Counter-ions that a name gives are not always drawn. Like-named read-outs stand apart in the source and are kept apart here. Where only a bound is given, the exact number is not on record here.

Series [1] concerns arterial blood pressure and dp/dt max. (left ventricle). In words: Cardiotonic and blood pressure effects in anesthetized cats. The series is classed as in vivo, cat. Particulars: 2 mg/kg intravenously; for Change in blood pressure (first value of the pair printed with a slash): first of two values; for Change in blood pressure (second value of the pair printed with a slash): second of two values; for change in vivo at 2 mg/kg: Felis catus, iv, dp/dt max., index of contractility, read-out: Increase in dp/dt. As to the method:
1. Cardiotonic and blood pressure effects
Cats of both sexes with a body weight of 2 to 4 kg were anesthetized by intraperitoneal injection of 30 mgm/kg of sodium pentobarbital. The arterial blood pressure was measured by a Statham pressure transducer (P23 Dc) from the aorta abdominalis via a PVA-Catheter, which was inserted through the right arteria femoralis. The ventricle pressure was measured by a cathetertip manometer (type MILLAR PC-350), which was introduced into the left ventricle via the right arteria carotis. The indices of contractility dp/dt max. were obtained by a differentiating amplifier. The arterial blood pressure and dp/dt max. were continuously recorded by direct-writer. The test compounds were injected intravenously at 2 mg/kg.

The nature of series [2]: Acute toxicity in mice. Particulars: mouse, in vivo, dose at which 50% of the animals died.
Series [3] has as its system isolated electrically stimulated left auricle of the guinea pig. In words: Effect on the effective refractory period of the isolated electrically stimulated left auricle of the guinea pig. The settings on record: Cavia porcellus; Tyrode's solution, 37° C.; cumulative dosing; graphically determined from dose response curves; read-out: EC50 (concentration which reduces the maximum stimulation frequency by 50%). As to the method:
2. Effect on the effective refractory period of the isolated electrically stimulated left auricle of the guinea pig
Guinea pigs of both sexes were killed by a blow on the neck. After opening the thorax, the heart was quickly removed and transferred into a Tyrode's solution (37° C.). The auricles were separated from the ventricles along the Annulus fibrosus, and only the left auricles were used. Electrical stimulation was performed by a Grass stimulator, S4G, with square wave impulses of 1 millisecond duration and a stimulation voltage of 12 V. The auricles were suspended in Tyrode's solution at 37° C. containing 136.8 mVal NaCl, 2.68 mVal KCL, 0.2625 mVal MgCl2, 0.417 mVal NaH2 PO4, 11.9 mVal NaHCO3, 1.8 mVal CaCl, and 3 gm of glucose perliter. The solution was continuously aerated with O2 /CO2 (98%/2%). The isometric contractions were measured with a force displacement transducer and recorded on a Grass polygraph (P5). The number of the contractions was counted out and compared with the frequency indicated at the stimulator.
The maximum stimulation frequency was determined by increasing the stimulation rate every 10 seconds by 1 Hz. The maximum stimulation frequency was measured in preliminary tests by determining the average value. During the intervals of 5 minutes each between the measurements, the stimulation rate was 0.5 Hz.
After the determination of the average value the test compound was added to the Tyrode's solution and the stimulation rate was maintained at 0.5 Hz. During the first 5 minutes the inotropic effect of the compound was observed. Measurements were performed every 5 and 10 minutes after addition of the test compound. The average value resulting from the two tests (value at 5 minutes and 10 minutes, respectively) was taken as the maximum stimulation frequency after addition of the test compound. At first small doses were given, and after determination of the maximum stimulation frequency the dose was increased cumulatively and the maximum stimulation frequency for that dose was measured.
The maximum stimulation frequency is measured by increasing the stimulation rate. When the interval between two stimuli is shortened, a stimulation rate is reached at which every second stimulation falls into the refractory period of the foregoing contraction and will not be answered with a contraction. So, the maximum stimulation frequency is a measure of the effective refractory period. Compounds which reduce the maximum stimulation frequency, prolong the refractory period.
From the dose response curves the concentrations which reduce the maximum stimulation frequency by 50%, were graphically determined: […]

Series [4] has as its system chloroform-induced ventricular fibrillation. Briefly: Antiarrhythmic effect against chloroform-induced ventricular fibrillation in mice. The series is classed as in vivo. Particulars: Mus musculus, 1 min, male mice, ventricular fibrillation prevented in 50% of animals. The procedure:
3. Antiarrhythmic effect against chloroform-induced ventricular fibrillation in mice
On placing a mouse into a chloroform-saturated atmosphere, the animal becomes anesthetized after 40 sec., the spontaneous respiration stops, and after 20 sec. more, gasping respiration sets in.
Immediately after the gasping respiration has ceased, the mouse is taken out of the chloroform atmosphere, the thorax is opened, and the heart is quickly exposed to allow inspection of the heart movement. For 1 minute after opening the thorax, spontaneous ventricular fibrillation occurs in nearly all the animals or can be induced by touching the heart with tweezers.
Pre-treatment with antiarrhythmic compounds reduces the number of animals which show fibrillation in a dose-dependent way. The dose which reduces the number of animals having fibrillations by 50% (ED50) is calculated by means of dose-response curves and the standard deviation is determined [MILLER, L. C. and TAINTER, M. L., Proc. Soc. Exp. Biol. Med. 57, 261 (1944)].
The tests were performed on male mice, body weight 20-25 gm. Each dose was tested on 10 animals.
The dose was determined, at which after i.v. and p.o. administration one minute before starting the test, the ventricular fibrillation was prevented in 50% of the animals.

[5] abbreviates: po, read-out: Toxicity (LD50) p.o.
Setting [6] is: iv, i.v. one minute before test, read-out: ED50 i.v.
Where [7] appears, read: po, p.o. one minute before test, read-out: ED50 p.o.

Take `COc1ccc(-c2nc3ccc4c(c3[nH]2)C(=O)NC(=O)C4(C)C)c(OC)c1` [A, 7,7-Dimethyl-2-(2,4-dimethoxy-phenyl)-5H,7H-imidazo[4,5-h]isoquinoline-4,6-dione hydrochloride]: in series [1], the Duration was above 24 min, the “Change in blood pressure (first value of the pair printed with a slash)” value is -49 mm Hg and the “Change in blood pressure (second value of the pair printed with a slash)” value is -48 mm Hg.
With `COc1cc(S(C)(=O)=O)ccc1-c1nc2ccc3c(c2[nH]1)C(=O)NC(=O)C3(C)C` [B, 7,7-Dimethyl-2-(2-methoxy-4-methylsulfonyl-phenyl)-5H,7H-imidazo[4,5-h]isoquinoline-4,6-dione], in series [1], the Duration was above 56 min, the “Change in blood pressure (first value of the pair printed with a slash)” value is -52 mm Hg and the “Change in blood pressure (second value of the pair printed with a slash)” value is listed as -80 mm Hg.
`CC1(C)C(=O)NC(=O)c2c1ccc1[nH]c(CCc3ccccc3)nc21` [C]: in series [1], the Duration is above 20 min, the “Change in blood pressure (first value of the pair printed with a slash)” value was -40 mm Hg and the “Change in blood pressure (second value of the pair printed with a slash)” value is reported as -50 mm Hg.
For `COc1ccccc1-c1nc2ccc3c(c2[nH]1)C(=O)NC(=O)C3(C)C` [Compound E, 7,7-Dimethyl-2-(2-methoxy-phenyl)-5H,7H-imidazo[4,5-h]isoquinoline-4,6-dione hydrochloride], in that order: 12 min, -46 mm Hg and -63 mm Hg.
The term LD50 denotes the dose at which mortality reaches 50%. In the case of `CC1(C)C(=O)NC(=O)c2c1ccc1nc(Cc3ccccc3)[nH]c21` [D, 7,7-Dimethyl-2-benzyl-5H,7H-imidazo[4,5-h]isoquinoline-4,6-dione], in series [1], the Duration is above 57 min, the “Change in blood pressure (first value of the pair printed with a slash)” value is -67 mm Hg, the “Change in blood pressure (second value of the pair printed with a slash)” value is given as -63 mm Hg and the change in vivo at 2 mg/kg was found to be 110%. Moreover, the LD50 in series [2] (setting [5]) is above 300 mg/kg.
Take `CC1(C)C(=O)NC(=O)c2c1ccc1nc(C3CCCCC3)[nH]c21` [F]: in series [1], the Duration was above 42 min, the “Change in blood pressure (first value of the pair printed with a slash)” value is -23 mm Hg and the “Change in blood pressure (second value of the pair printed with a slash)” value is -40 mm Hg. Besides, the LD50 in series [2] (setting [5]) was above 300 mg/kg.
Regarding `CC1(C)C(=O)NC(=O)c2c1ccc1nc(-c3ccc(Cl)cc3)[nH]c21` [G, 7,7-Dimethyl-2-(4-chloro-phenyl)-5H,7H-imidazo[4,5-h]isoquinoline-4,6-dione hydrochloride], in series [1], the Duration was 9 min, the “Change in blood pressure (first value of the pair printed with a slash)” value is reported as -40 mm Hg and the “Change in blood pressure (second value of the pair printed with a slash)” value is recorded as -30 mm Hg.
Taken in the same sequence, the figures for `CSc1ccc(-c2nc3ccc4c(c3[nH]2)C(=O)NC(=O)C4(C)C)cc1` [H, 7,7-Dimethyl-2-(4-methylmercapto-phenyl)-5H,7H-imidazo[4,5-h]isoquinoline-4,6-dione] were above 12 min, -45 mm Hg and -45 mm Hg.
`COc1ccc(-c2nc3ccc4c(c3[nH]2)C(=O)NC(=O)C4(C)C)cc1` [I, 7,7-Dimethyl-2-(4-methoxy-phenyl)-5H,7H-imidazo[4,5-h]isoquinoline-4,6-dione hydrochloride]: in series [1], the Duration is above 19 min, the “Change in blood pressure (first value of the pair printed with a slash)” value is -33 mm Hg and the “Change in blood pressure (second value of the pair printed with a slash)” value is given as -46 mm Hg.
In the case of `CC1(C)C(=O)NC(=O)c2c1ccc1nc(-c3ccc(O)cc3)[nH]c21` [J, 7,7-Dimethyl-2-(4-hydroxy-phenyl)-5H,7H-imidazo[4,5-h]isoquinoline-4,6-dione hydrochloride], in series [1], the Duration is above 29 min, the “Change in blood pressure (first value of the pair printed with a slash)” value is given as -47 mm Hg and the “Change in blood pressure (second value of the pair printed with a slash)” value is -58 mm Hg.
`COc1ccc(S(C)(=O)=O)cc1-c1nc2ccc3c(c2[nH]1)C(=O)NC(=O)C3(C)C` [K, 7,7-Dimethyl-2-(2-methoxy-5-methylsulfonyl-phenyl)-5H,7H-imidazo[4,5-h]isoquinoline-4,6-dione]: in series [1], the Duration was above 107 min, the “Change in blood pressure (first value of the pair printed with a slash)” value is -70 mm Hg, the “Change in blood pressure (second value of the pair printed with a slash)” value was -67 mm Hg and the change in vivo at 2 mg/kg was found to be 157%. In series [2] (setting [5]), the LD50 is above 300 mg/kg.
In the case of `COc1ccc([S+](C)[O-])cc1-c1nc2ccc3c(c2[nH]1)C(=O)NC(=O)C3(C)C` (centres unmarked) [L, 7,7-Dimethyl-2-(2-methoxy-5-methylsulfinyl-phenyl)-5H,7H-imidazo[4,6-h]isoquinoline-4,6-dione hydrochloride], in series [1], the Duration is above 70 min, the “Change in blood pressure (first value of the pair printed with a slash)” value is -42 mm Hg and the “Change in blood pressure (second value of the pair printed with a slash)” value is -53 mm Hg.
Consider `CC1(C)C(=O)NC(=O)c2c1ccc1nc(C3CC3)[nH]c21` [M, hydrochloride], for which, in series [1], the Duration is above 55 min, the “Change in blood pressure (first value of the pair printed with a slash)” value is on record as -41 mm Hg, the “Change in blood pressure (second value of the pair printed with a slash)” value is given as -49 mm Hg and the change in vivo at 2 mg/kg is 108%.
As usually defined, the ED50 is the midpoint of the dose-response relation. Take `CCN(CC)CCN1C(=O)c2c(ccc3nc(-c4ccccc4)[nH]c23)C(C)(C)C1=O` [N, 7,7-Dimethyl-2-phenyl-5-(2-diethylamino-ethyl)-5H,7H-imidazo[4,5-h]isoquinoline-4,6-dione dihydrochloride]: in series [3], the EC50 was 1.8 µg/mL. Also, the ED50 is 2.4 mg/kg in series [4] (setting [6]) and 21.2 mg/kg in series [4] (setting [7]).
For `CCN(CC)CCCN1C(=O)c2c(ccc3nc(-c4ccccc4)[nH]c23)C(C)(C)C1=O` [O, 7,7-Dimethyl-2-phenyl-5-(3-diethylamino-propyl)-5H,7H-imidazo[4,5-h]isoquinoline-4,6-dione dihydrochloride], the EC50 in series [3] is 5 µg/mL. Further, the ED50 in series [4] (setting [6]) turned out to be 6.4 mg/kg; in series [4] (setting [7]) it was 29 mg/kg. Also, the LD50 stood at 61 mg/kg in series [2] (ip, read-out: Toxicity (LD50) i.p.) and 92 mg/kg in series [2] (setting [5]).
In the case of `CC1(C)C(=O)N(CCCN2CCCCC2)C(=O)c2c1ccc1nc(-c3ccccc3)[nH]c21` [P, 7,7-Dimethyl-2-phenyl-5-(3-piperidino-propyl)-5H,7H-imidazo[4,5-h]isoquinoline-4,6-dione dihydrochloride], in series [3], the EC50 stood at 6.7 µg/mL. Moreover, the ED50 in series [4] (setting [6]) is 10.5 mg/kg; in series [4] (setting [7]), 130 mg/kg.
For `CN(C)CCN1C(=O)c2c(ccc3nc(-c4ccccc4)[nH]c23)C(C)(C)C1=O` [Q, 7,7-Dimethyl-2-phenyl-5-(2-dimethylamino-ethyl)-5H,7H-imidazo[4,5-h]isoquinoline-4,6-dione-dihydrochloride], in that order: 4.8 µg/mL, 6.1 mg/kg and 23.5 mg/kg.
